Laboratory results reported in patent US8642357B2, “Semaphorin 7A plays a critical role in TGF-β1-induced pulmonary fibrosis and alveolar destruction” (Yale University, priority 2009, dated 2014).

System: C57BL/6 female mice
Test: Bleomycin-induced pulmonary fibrosis and collagen accumulation
Type: in vivo
Settings: 0.075 Unit/mouse intratracheal; most impressive 3 weeks after administration
Method: Animals were anesthetized, a median sternotomy was performed, and right heart perfusion was accomplished with calcium and magnesium-free phosphate-buffered saline (PBS). The heart and lungs were then removed en bloc. The right lung was frozen in liquid nitrogen and stored at −80° C. until used. Collagen content was determined by quantifying total soluble collagen using the Sircol Collagen Assay kit (Biocolor) according to the manufacturer's instructions. The data is expressed as the collagen content of the entire right lung.
The lungs were removed en bloc as described above, inflated at 25 cm pressure with PBS containing 0.5% low melting point agarose gel, fixed, embedded in paraffin, sectioned and stained. Hematoxylin and eosin, and Mallory's trichrome stains were performed in the Research Histology Laboratory of the Department of Pathology at the Yale University School of Medicine.
Bleomycin (0.075 Unit/mouse) or vehicle control were administered to C57BL/6 female mice as previously described by Jiang et al. (2004, J Clin Invest. 114:291-299).
Studies were also undertaken to determine if the biology of SEMA 7A that was defined using the Tg modeling system was also relevant to fibrotic responses that were induced by other stimuli. […]

Bleomycin
Pulmonary fibrosis and collagen accumulation: significant increase
